Assay results taken from article PMC2673211, “Nitric oxide activates ATP-sensitive potassium channels in mammalian sensory neurons: action by direct S-nitrosylation” (Molecular Pain, 2009).

Key:
Type in all cases: biochemical
[1] = target: T1, SUR1-C717S/Kir6.2 channels (Rattus norvegicus, UniProt P70673+Q09429, C717S); experiment: Inside-out patch recording of mutated channels expressed in COS7 cells; conditions: DTT 5 mM; n = 7
T1 construct: A full-length Kir cDNA and a full-length SUR cDNA were subcloned into the mammalian expression vector; expressed in transfected cells; host or cells: COS7 cells, pcDNA3.1(-) vectors, GFP cDNA co-transfected as a separate reporter
Experimental: (§1) KATP channel-deficient COS7 cells were plated at a density of 3 × 10^5/dish (35 mm in diameter) and cultured in Dulbecco's modified Eagle's medium supplemented with 10% fetal calf serum. Rat Kir6.2 (GenBank X97041) and rat SUR1 (GenBank X97279) cDNAs were used for expression study. A truncated form of Kir6.2 lacking the last 36 amino acids at the C-terminus was obtained by polymerase chain reaction amplification. Polymerase chain reaction products were cloned into the pCR3.1 vector by using the TA cloning system (Invitrogen Corp., Carlsbad, CA, USA) and then cloned into the pcDNA3.1 (-) vector (Invitrogen Corp.) for mammalian expression. Point mutation of cysteine at position 717 (C717), C806, C1378, C1446, and C1491 within SUR1 to serine (C717S, C806S, C1378S, C1446S, and C1491S) was performed by using the Site-Directed Mutagenesis system (Invitrogen Corp.). All cDNA products were sequenced by using the BigDye terminator cycle sequencing kit and an ABI PRISM 377 DNA sequencer (Applied Biosystems, Foster City, CA) to confirm the sequence. A full-length Kir cDNA and a full-length SUR cDNA were subcloned into the mammalian expression vector pcDNA3.1 (-). For electrophysiological recordings, either wild-type or mutated pcDNA3.1 (-) Kir6.2 alone (1 μg), or pcDNA3.1 (-) Kir6.2 (1 μg) plus pcDNA3.1 (-) SUR1 (3 μg) were transfected into COS7 cells with green fluorescent protein cDNA as a reporter gene by using lipofectamine and Opti-MEN 1 reagents (Life Technologies Inc., Rockville, MD) according to the manufacturer's instructions. After transfection, cells were cultured at 37°C with 95% air and 5% CO2 for 48–72 h before being subjected to electrophysiological recordings.
(§2) We recorded current passing through single channels in inside-out or cell-attached patch configurations. In cell-attached patches, both bath and pipette (extracellular) solutions were composed of the following: 140 mM KCl, 10 mM HEPES, 5.5 mM dextrose, and 1 mM EGTA. In inside-out patches, the bath (intracellular) solution contained 140 mM KCl, 1.2 mM MgCl2, 10 mM HEPES, 1.5 mM EGTA and 5.5 mM dextrose. The pipette (extracellular) solution was of the same composition as that used in cell-attached recordings. The pH of all solutions was adjusted to 7.4 with KOH. Osmolality was adjusted approximately to 300 mOsm/l by adding sucrose if necessary. We pulled patch micropipettes from borosilicate glass capillaries using a Flaming/Brown micropipette puller, model P-97 (Sutter, San Rafael, CA) and flame polished them with a microforge polisher (Narishige, Tokyo, Japan) prior to use. Their resistance ranged between 3 and 6 MΩ when filled with the internal solution, and placed into the recording solutions.
(§3) We recorded single channel currents at room temperature (20–25°C) using an Axon CNS Multiclamp 700B amplifier, digitized them using an analog-to-digital converter (Axon CNS DigiData 1440A; Axon Instruments, Foster, CA), and stored them into a PC. Sampling frequency of single-channel data was 5 KHz with a low-pass filter (1 KHz). We used pClamp version 10.2 software (Axon Instruments) for data acquisition and analysis. […] Channel open probability (Po) was determined from the ratios of the area under the peaks in the amplitude histograms fitted by a Gaussian distribution. We calculated channel activity as NPo (where N is the number of observed channels in the patch) from data samples of either 30 s (in inside-out recordings), or 60 s (in cell-attached recordings), in the steady state. […]

[2] = target: T2, KATP channels in large DRG neurons (Rattus norvegicus, UniProt P70673+Q09429); experiment: Excised inside-out (cell-free) patch-clamp recording of KATP channel activity
T2 construct: native KATP channels in large DRG neurons; endogenous in cells; host or cells: acutely dissociated large-diameter neurons from rat L4/L5 dorsal root ganglia (sham-operated or spinal nerve ligated animals)
Source text: We harvested control (L4 and L5) or axotomized (L5) ganglia, from control (SS) or hyperalgesic rats (SNL) respectively, between the 17th and 28th postoperative days. We sacrificed animals by decapitation under deep isoflurane anesthesia, excised ganglia through a lumbar incision, and at the same time confirmed accuracy of initial surgery.
For patch-clamp recordings, we placed excised DRG into separate 35 mm Petri dishes containing cold, oxygenated, Hanks Balanced Salt Solution (Gibko, Invitrogen, Grand Islan, NY), and minced them with iris scissors. We dissociated ganglia enzymatically in a solution containing 0.25 ml 0.05% w:v liberase blendzyme 2 (Roche Diagnostics Corp., Indianapolis, IN) and 0.25 ml DMEM/F12 with glutaMAX (Dulbecco's modified Eagle's medium F12; Gibco, Invitrogen Corp., Carlsbad, CA) in an incubator at 37°C for 30 min. We then removed the supernatant after centrifugation and re-incubated cells at 37°C for another 30 min in 0.2 ml 0.0625% trypsin (Sigma, St. Louis, MO) and 0.0125% deoxyribonuclease 1 (150,000 U, Sigma, St. Louis, MO) in 0.25 ml DMEM. We then isolated cells by centrifugation (600 rpm for 5 min) after adding 0.25 ml trypsin inhibitor 0.1% w:v (Sigma St. Louis, MO), and re-suspended them in a culture medium consisting of 0.5 mM glutamine, 0.02 mg/ml gentamicin (Gibco, Invitrogen Corp., Carlsbad, CA), 100 ng/ml nerve growth factor 7S (Alomone Labs, Jerusalem, Israel), 2% (vol/vol) B-27 supplement (Gibco, Invitrogen Corp., Carlsbad, CA), and 98% (vol/vol) neural basal medium A (Gibco, Invitrogen Corp., Carlsbad, CA). Finally, we plated cells onto poly-l-lysine-coated 12-mm glass coverslips (Deutsche Spiegelglas; Carolina Biologic Supply, Burlington, NC), kept them in a humidified incubator at 37°C with 95% air and 5% CO2, and studied them within 3–8 h of dissociation.
We visualized plated neurons using an inverted Nikon Diaphot 300 microscope with Hoffman modulation optic system. We selected only large diameter neuronal somata (≥ 40 μm in diameter) because we have previously shown that only these develop KATP current alterations, as well as changes indicative of increased excitability after painful-like nerve injury by SNL [74]. Large neuronal somata, roughly correspond to large, myelinated Aβ fibers.
as §2
We recorded single channel currents at room temperature (20–25°C) using an Axon CNS Multiclamp 700B amplifier, digitized them using an analog-to-digital converter (Axon CNS DigiData 1440A; Axon Instruments, Foster, CA), and stored them into a PC. Sampling frequency of single-channel data was 5 KHz with a low-pass filter (1 KHz). We used pClamp version 10.2 software (Axon Instruments) for data acquisition and analysis. We applied a conventional 50% current amplitude threshold level criterion to determine open events. Channel open probability (Po) was determined from the ratios of the area under the peaks in the amplitude histograms fitted by a Gaussian distribution. […]

[3] = target: T3, wild-type SUR1/Kir6.2 channels (Rattus norvegicus, UniProt P70673+Q09429); experiment: Inside-out patch recording of recombinant wild-type channels expressed in COS7 cells; conditions: DTT 5 mM after SNAP 1 mM
T3 construct: A full-length Kir cDNA and a full-length SUR cDNA were subcloned into the mammalian expression vector; expressed in transfected cells; host or cells: COS7 cells (KATP channel-deficient), pcDNA3.1(-) vectors, GFP cDNA co-transfected as a separate reporter
Experimental: as §1, §2, §3

T2 sequence (Q09429 whole entry): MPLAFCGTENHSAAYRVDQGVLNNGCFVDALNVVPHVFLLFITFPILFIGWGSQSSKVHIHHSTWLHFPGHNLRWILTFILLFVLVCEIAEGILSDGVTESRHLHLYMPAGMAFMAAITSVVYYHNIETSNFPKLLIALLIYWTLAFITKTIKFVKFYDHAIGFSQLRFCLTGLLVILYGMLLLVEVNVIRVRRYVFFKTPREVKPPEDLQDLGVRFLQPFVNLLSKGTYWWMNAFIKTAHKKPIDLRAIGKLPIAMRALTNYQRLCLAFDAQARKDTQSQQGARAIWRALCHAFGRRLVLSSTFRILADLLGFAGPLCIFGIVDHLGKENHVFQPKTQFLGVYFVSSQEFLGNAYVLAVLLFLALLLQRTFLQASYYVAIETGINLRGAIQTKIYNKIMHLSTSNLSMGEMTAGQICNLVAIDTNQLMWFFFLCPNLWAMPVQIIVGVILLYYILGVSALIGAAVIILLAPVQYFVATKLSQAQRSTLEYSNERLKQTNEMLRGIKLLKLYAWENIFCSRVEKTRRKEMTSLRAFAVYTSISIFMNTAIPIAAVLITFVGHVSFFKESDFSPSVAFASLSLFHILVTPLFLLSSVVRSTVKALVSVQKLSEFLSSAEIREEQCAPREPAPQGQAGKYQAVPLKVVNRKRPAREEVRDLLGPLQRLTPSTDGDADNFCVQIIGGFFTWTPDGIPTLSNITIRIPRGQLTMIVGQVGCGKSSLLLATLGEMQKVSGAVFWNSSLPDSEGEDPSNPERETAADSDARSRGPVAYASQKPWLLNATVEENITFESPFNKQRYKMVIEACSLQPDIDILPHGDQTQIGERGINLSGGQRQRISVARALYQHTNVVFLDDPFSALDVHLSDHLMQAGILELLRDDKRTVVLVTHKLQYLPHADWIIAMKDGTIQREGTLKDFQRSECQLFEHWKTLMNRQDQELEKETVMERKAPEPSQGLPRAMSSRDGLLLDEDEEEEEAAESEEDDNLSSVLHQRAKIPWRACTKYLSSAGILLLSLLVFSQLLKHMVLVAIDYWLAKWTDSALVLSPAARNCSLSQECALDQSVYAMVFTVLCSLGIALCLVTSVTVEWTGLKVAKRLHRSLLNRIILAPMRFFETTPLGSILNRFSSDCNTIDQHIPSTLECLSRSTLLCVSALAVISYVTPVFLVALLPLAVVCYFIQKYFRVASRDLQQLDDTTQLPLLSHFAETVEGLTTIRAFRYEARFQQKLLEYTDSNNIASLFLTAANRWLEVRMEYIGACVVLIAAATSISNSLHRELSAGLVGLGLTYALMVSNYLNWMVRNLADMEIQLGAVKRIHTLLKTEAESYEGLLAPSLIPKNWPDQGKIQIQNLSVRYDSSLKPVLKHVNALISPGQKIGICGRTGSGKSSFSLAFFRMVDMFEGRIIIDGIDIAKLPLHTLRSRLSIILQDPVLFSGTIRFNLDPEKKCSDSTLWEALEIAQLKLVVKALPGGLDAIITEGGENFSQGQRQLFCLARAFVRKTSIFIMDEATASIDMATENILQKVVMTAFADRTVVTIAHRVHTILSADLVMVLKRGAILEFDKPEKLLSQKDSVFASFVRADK
T2 sequence (P70673 whole entry): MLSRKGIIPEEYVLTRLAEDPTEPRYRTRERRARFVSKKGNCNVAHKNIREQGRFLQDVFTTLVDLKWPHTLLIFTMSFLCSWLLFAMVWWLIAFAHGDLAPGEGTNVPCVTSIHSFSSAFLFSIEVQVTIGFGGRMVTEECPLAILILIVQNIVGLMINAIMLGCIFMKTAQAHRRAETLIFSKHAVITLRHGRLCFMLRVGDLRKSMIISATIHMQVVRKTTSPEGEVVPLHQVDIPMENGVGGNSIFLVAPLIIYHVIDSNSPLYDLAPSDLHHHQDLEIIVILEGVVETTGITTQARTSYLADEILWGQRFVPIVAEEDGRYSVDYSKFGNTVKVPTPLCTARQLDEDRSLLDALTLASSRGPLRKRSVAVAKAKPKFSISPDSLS
T3 sequence (Q09429 whole entry): as the sequence (Q09429 whole entry) above
T3 sequence (P70673 whole entry): as the sequence (P70673 whole entry) above
T1 sequence (Q09429 whole entry C717S): as the sequence (Q09429 whole entry) above, with C717S counted along it
T1 sequence (P70673 whole entry): as the sequence (P70673 whole entry) above

In the case of O[C@@H](CS)[C@@H](O)CS (racemic) [DTT, di-thiothreitol], the “effect on SNAP-induced channel activation” value [1] is reported as “reversed”, the “effect on SNAP-induced KATP channel activation” value ([2]; SS neurons, DTT 5 mM after SNAP 100 μM, 1 mM [ATP]i, n = 7) is reported as “completely reversed” and the “direct effect on KATP channels in inside-out patches” value ([2]; agent alone, vs. baseline/control) is reported as “no direct effect”. The “effect on SNAP-activated currents” value [3] was “almost completely suppressed”.
